Measured values from US10034886B2, “GLP-1 receptor modulators” (Celgene International II SÀRL, priority 2014, dated 2018).
Where two headings read alike, the source gives them in different places.

Target: T1, GLP-1R (Homo sapiens, UniProt P43220)
T1 construct: host or cells: GLP-1R CRE-bla CHO-K1 cells
Experiment: EC20 GLP-1(9-36) PAM cAMP assay: dose response of compound in the presence of fixed concentration of GLP-1(9-36)
Assay type: cell-based
Conditions: GLP-1R CRE-bla CHO-K1 cells, read-out: EC20 GLP-1(9-36) PAM EC50
Method in brief: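 Positive allosteric modulation read as cAMP accumulation: compound titrations (12 points) combined with an EC20 level of GLP-1(9-36) on CHO-K1 GLP-1R CRE-bla cells, IBMX present, 30 min, 37 °C, pH 7.4 buffer. Luminescence converted to cAMP via standards; non-linear fit gave EC50 and Emax.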

[1] = compound dose response with fixed concentration of GLP-1(9-36)
[2] = dose response of compound in presence of fixed concentration of GLP-1(9-36)

T1 sequence (P43220 24-463): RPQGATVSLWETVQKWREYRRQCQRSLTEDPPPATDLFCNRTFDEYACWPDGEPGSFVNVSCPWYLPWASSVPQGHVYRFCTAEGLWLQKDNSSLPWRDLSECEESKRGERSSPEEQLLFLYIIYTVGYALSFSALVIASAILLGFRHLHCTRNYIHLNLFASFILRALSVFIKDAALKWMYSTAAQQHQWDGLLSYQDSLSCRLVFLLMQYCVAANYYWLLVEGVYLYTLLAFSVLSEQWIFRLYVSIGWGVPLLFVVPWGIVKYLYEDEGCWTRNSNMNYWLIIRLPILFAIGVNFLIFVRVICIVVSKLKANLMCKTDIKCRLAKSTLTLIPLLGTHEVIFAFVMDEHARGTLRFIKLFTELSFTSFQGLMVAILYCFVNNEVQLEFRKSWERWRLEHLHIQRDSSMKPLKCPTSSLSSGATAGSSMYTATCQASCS
T1 sequence (P01275 100-127 partner limits assumed): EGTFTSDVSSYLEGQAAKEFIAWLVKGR

| SMILES | EC50 [1] [µM] | EC50 [2] [µM] |
| --- | --- | --- |
| CC[C@H]1CC[C@H](c2ccc(-c3cnc(-c4ccc(C[C@@H](NC(=O)c5ccc(C(C)(C)C)s5)C(=O)N[C@H](C)C(=O)O)cc4)nc3)cc2)CC1 [Compound 1269] | 5 to 10 | – |
| CC[C@H]1CC[C@H](c2ccc(-c3cnc(-c4ccc(C[C@H](NC(=O)c5ccc(C(C)(C)C)nc5)C(=O)O)cc4)nc3)cc2)CC1 [Compound 1367] | < 0.8 | – |
| CCCCCCCOc1ccc2nc(-c3ccc(C[C@H](NC(=O)c4ccc(C(C)(C)C)cc4)C(=O)N4CC[C@H](C(=O)O)C4)cc3)ccc2c1 [Compound 807] | – | 5 to 10 |
| CC(=O)c1ccccc1-c1ccc(-c2cnc(-c3ccc(C[C@H](NC(=O)c4ccc(C(C)(C)C)s4)C(=O)N4CC(C(=O)O)C4)cc3)nc2)c(F)c1 [Compound 1197] | – | 0.8 to 2.5 |
| CCCCCCCOc1ccc(-c2cnc(-c3ccc(C[C@H](NC(=O)c4ccc(CCC)cc4)C(=O)N4CC[C@H](C(=O)O)C4)cc3)nc2)cc1 [Compound 853] | – | 0.8 to 2.5 |
| CCCCCCCOc1ccc(-c2cnc(-c3ccc(C[C@H](NC(=O)c4ccc(C(C)(C)C)s4)C(=O)N[C@@H](CC(=O)O)C(=O)N4CCCC4)cc3)nc2)cc1 [Compound 528] | – | < 0.8 |
| CCCCCCCOc1ccc(-c2cnc(-c3ccc(C[C@H](NC(=O)c4ccc(CCC)cc4)C(=O)N4CCC[C@H]4C(=O)O)cc3)nc2)cc1 [Compound 1073] | – | 0.8 to 2.5 |
| CCC[C@H]1CC[C@H](C2CCN(c3cnc(-c4ccc(C[C@H](NC(=O)c5ccc(C)s5)C(=O)N5CC(C(=O)O)C5)cc4)nc3)CC2)CC1 [Compound 1530] | 0.8 to 2.5 | – |
| Cc1ccc(-c2ccc(-c3cnc(-c4ccc(C[C@H](NC(=O)c5ccc(C(C)(C)C)s5)C(=O)N5CC(C(=O)O)C5)cc4)nc3)c(F)c2)cc1 [Compound 1207] | < 0.8 | – |
| CC(C)CCOc1ccc(-c2cnc(-c3ccc(C[C@H](NC(=O)c4ccc(C(C)(C)C)cc4)C(=O)NCCC(=O)O)cc3)nc2)cc1 [Compound 456] | – | 0.8 to 2.5 |
| CCCCCCCOc1ccc(-c2cnc(-c3ccc(C[C@H](NC(=O)c4ccc(C(C)(C)C)cc4)C(=O)N[C@H](C(=O)O)[C@@H](C)CC)cc3)nc2)cc1 [Compound 449] | – | 0.8 to 2.5 |
| CCCCCCOc1ccc(-c2cnc(-c3ccc(C[C@H](NC(=O)c4ccc(C(C)(C)C)s4)C(=O)N4CC(C(=O)O)C4)cc3)nc2)cc1 [Compound 777] | – | 0.8 to 2.5 |
| CCCCCCCOc1ccc(-c2cnc(-c3ccc(C[C@H](NC(=O)c4ccc(C(C)(C)C)cc4)C(=O)N4CCC(O)C(C(=O)O)C4)cc3)nc2)cc1 (stereo partly shown) [Compound 661] | – | < 0.8 |
| CCc1ccc(C(=O)N[C@@H](Cc2ccc(-c3ncc(-c4ccc([C@H]5CC[C@H](CC)CC5)cc4)cn3)cc2)C(=O)O)cc1 [Compound 1370] | 0.8 to 2.5 | – |
| CC[C@H]1CC[C@H](c2ccc(-c3cnc(-c4ccc(C[C@H](NC(=O)c5ccc(C)cc5)C(=O)O)cc4)nc3)cc2)CC1 [Compound 1371] | 0.8 to 2.5 | – |
| CCC(C)(C)c1ccc(C(=O)N[C@@H](Cc2ccc(-c3ncc(-c4ccc(OCCCC(C)C)cc4)cn3)cc2)C(=O)N2CC(C(=O)O)C2)cc1 [Compound 1237] | 2.5 to 5 | – |
| CCCCCCCOc1ccc(-c2cnc(-c3ccc(C[C@H](NC(=O)c4ccc(C(C)(C)C)cc4)C(=O)N[C@@H](C)C(=O)O)cc3)nc2)cc1 [Compound 400] | – | < 0.8 |
| CCCCCCCOc1ccc(-c2cnc(-c3ccc(C[C@H](NC(=O)c4ccc(C(C)(C)C)cc4)C(=O)NC(Cc4cccnc4)C(=O)O)cc3)nc2)cc1 (stereo partly shown) [Compound 541] | – | 0.8 to 2.5 |
| CCCCCCCOc1ccc(-c2cnc(-c3ccc(C[C@H](NC(=O)c4ccc(C(C)(C)C)s4)C(=O)N[C@@H](CC(=O)O)C(=O)NCCOC)cc3)nc2)cc1 [Compound 532] | – | < 0.8 |

| SMILES | EC50 [1] [µM] | EC50 [2] [µM] |
| --- | --- | --- |
| CC(C)(C)Cc1noc(-c2cnc(-c3ccc(C[C@H](NC(=O)c4ccc(C(C)(C)C)cc4)C(=O)NCCC(=O)O)cc3)nc2)n1 [Compound 744] | – | 5 to 10 |
| CCCCCCCOc1ccc(-c2cnc(-c3ccc(C[C@H](NC(=O)c4ccc(C(C)(C)C)cc4)C(=O)NC(C(=O)O)c4cccc(C(F)(F)F)c4)cc3)nc2)cc1 (stereo partly shown) [Compound 545] | – | < 0.8 |
| CCCCCCCOc1ccc(-c2cnc(-c3ccc(C[C@H](NC(=O)c4ccc(C(C)(C)C#N)cc4)C(=O)N[C@H](C)C(=O)O)cc3)nc2)cc1 [Compound 835] | – | 2.5 to 5 |
| CCCCCCCOc1ccc(-c2cnc(-c3ccc(C[C@@H](NC(=O)c4ccc(C(C)(C)C)cc4)C(=O)NCC(=O)O)cc3)nc2)cc1 [Compound 380] | – | 0.8 to 2.5 |
| CCCCCOc1ccc(-c2cnc(-c3ccc(C[C@H](NC(=O)c4ccc(C(C)(C)C)s4)C(=O)N4CC[C@H](C(=O)O)C4)cc3)nc2)cc1 [Compound 762] | – | 5 to 10 |
| CCCCCCCOc1ccc(-c2cnc(-c3ccc(C[C@H](NC(=O)c4ccc(C(C)(C)C)s4)C(=O)NC(C(=O)O)C(O)c4cccc(Cl)c4)cc3)nc2)cc1 (stereo partly shown) [Compound 902] | – | 2.5 to 5 |
| CCCCCCCOc1ccc(-c2cnc(-c3ccc(C[C@H](NC(=O)c4ccc(C(C)(C)C)s4)C(=O)N[C@@H](CC(=O)NCCO)C(=O)O)cc3)nc2)cc1 [Compound 521] | – | < 0.8 |
| CCCCCCCOc1ccc(-c2cnc(-c3ccc(C[C@H](NC(=O)c4ccc(C(C)(C)C)s4)C(=O)NC(C(=O)O)[C@@H](O)c4ccccc4)cc3)nc2)cc1 (stereo partly shown) [Compound 651] | – | < 0.8 |
| CC[C@H]1CC[C@H](c2ccc(-c3cnc(-c4ccc(C[C@H](NC(=O)c5ccc(C6CC6)cc5)C(=O)N5CC(C(=O)O)C5)cc4)nc3)cc2)CC1 [Compound 1158] | – | < 0.8 |
| CCOc1ccc(-c2cnc(-c3ccc(C[C@H](NC(=O)c4ccc(C(C)(C)C)cc4)C(=O)N[C@H](C)C(=O)O)cc3)nc2)cc1 [Compound 721] | – | 0.8 to 2.5 |
| CCCCCCCOc1ccc(-c2cnc(-c3ccc(C[C@H](NC(=O)c4ccc(C(C)(C)C)s4)C(=O)N[C@@H](C(=O)O)[C@H](C)c4ccccc4)cc3)nc2)cc1 [Compound 910] | – | 0.8 to 2.5 |
| CCCCCCCOc1ccc(-c2cnc(-c3ccc(C[C@H](NC(=O)c4ccc(CC)cn4)C(=O)N4CC[C@H](C(=O)O)C4)cc3)nc2)cc1 [Compound 1098] | – | 2.5 to 5 |
| CCCCCCCOc1ccc(-c2cnc(-c3ccc(C[C@H](NC(=O)c4ccc(C(C)(C)C)s4)C(=O)N[C@H](C(=O)O)C(C)(C)C)cc3)nc2)cc1 [Compound 620] | – | 5 to 10 |
| CCCCCCCOc1ccc(-c2cnc(-c3ccc(C[C@H](NC(=O)c4ccc(C(C)(C)C)s4)C(=O)NCC(=O)NCCC(=O)O)cc3)nc2)cc1 [Compound 487] | – | < 0.8 |
| COc1cc(C(=O)N[C@@H](Cc2ccc(-c3ncc(-c4ccc(OCCCC(C)C)cc4)cn3)cc2)C(=O)N2CC(C(=O)O)C2)ccc1C(C)(C)C [Compound 1239] | 0.8 to 2.5 | – |
| CCCCCCCOc1ccc(-c2cnc(-c3ccc(C[C@H](NC(=O)c4ccc(C(C)(C)C)cc4)C(=O)NC(Cn4cncn4)C(=O)O)cc3)nc2)cc1 (stereo partly drawn) [Compound 467, 2-((S)-2-(4-(tert-butyl)benzamido)-3-(4-(5-(4-(heptyloxy)phenyl)pyrimidin-2-yl)phenyl)propanamido)-3-(1H-1,2,4-triazol-1-yl)propanoic acid] | – | < 0.8 |
| Cc1ccc(-c2ccc(-c3cnc(-c4ccc(C[C@H](NC(=O)c5ccc(C(C)(C)C)s5)C(=O)N[C@H](C)C(=O)O)cc4)nc3)cc2)cc1C [Compound 1138] | – | < 0.8 |
| CCCCCCCOc1ccc(-c2cnc(-c3ccc(C[C@H](NC(=O)c4ccc(C(C)(C)C)cc4)C(=O)NC(Cc4ccccc4)C(=O)O)cc3)nc2)cc1 (stereo partly shown) [Compound 561] | – | < 0.8 |
